In one assay the target is T1, MAO-A (Rattus norvegicus, UniProt P21396).
T1 construct: the whole brain without cerebellum was dissected rapidly and frozen on dry ice; from tissue; host or cells: whole brain without cerebellum of orally dosed male Wistar rats, homogenate
T1 sequence (P21396 1-526): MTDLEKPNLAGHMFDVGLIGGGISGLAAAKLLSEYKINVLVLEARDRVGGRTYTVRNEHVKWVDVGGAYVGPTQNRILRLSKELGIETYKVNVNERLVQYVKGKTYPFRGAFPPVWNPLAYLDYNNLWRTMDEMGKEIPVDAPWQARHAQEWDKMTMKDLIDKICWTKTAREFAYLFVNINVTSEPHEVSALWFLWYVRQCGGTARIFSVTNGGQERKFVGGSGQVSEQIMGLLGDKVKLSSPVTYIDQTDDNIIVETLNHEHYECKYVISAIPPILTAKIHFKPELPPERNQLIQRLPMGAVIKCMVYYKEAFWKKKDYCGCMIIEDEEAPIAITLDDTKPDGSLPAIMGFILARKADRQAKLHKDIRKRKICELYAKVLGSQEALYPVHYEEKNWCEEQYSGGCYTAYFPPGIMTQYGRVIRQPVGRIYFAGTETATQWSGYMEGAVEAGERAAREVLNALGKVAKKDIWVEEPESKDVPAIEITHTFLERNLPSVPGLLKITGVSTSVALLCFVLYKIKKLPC
Briefly: Inhibition of Type A monoamine oxidase activity in rat brain synaptosomes. The class given is biochemical. Particulars: substrate [^3 H]-5HT 200 μM; read-out: Inhibitory Concentration - IC50 MAO-A. The procedure:
Inhibition of Type A and Type B Monoamine Oxidase Activity in Rat Brain Synaptosomes
To determine the selective inhibition of the two forms of monoamine oxidase (MAO).
Although various methods for measuring MAO activity are available, the described method involves the extraction of the radiolabeled deaminated metabolites of [^3 H]-5HT or [^14 C]-β-phenethylamine. This procedure allows MAO-A and MAO-B activities to be measured either simultaneously or individually (3).
c. Add 12 μl of [^3 H]-5HT to 2 ml of the 5 mM 5HT solution. (Final amine concentration in the assay is 200 μM: see below.)
5. Equal amounts of MAO-A (5HT) and MAO-B (PEA) substrates are combined for simultaneously testing both MAO types, i.e. mixed stock solution of 2.5 mM 5HT and 2.5 mM PEA, 40 μl of this mixed solution gives a 200 μM final concentration of each amine in the assay. When testing only one MAO type, the individual 5 mM stock solutions must be diluted 1:1 with distilled water prior to adding 40 μl to the incubation mixture; i.e., same 200 μM final amine concentration.
Male Wistar rats weighing 150-250 grams were sacrificed and the brains rapidly removed. Whole brain minus cerebellum was homogenized in 30 volumes of ice-cold, phosphate-buffered 0.25M sucrose, using a Potter-Elvejhem homogenizer. The homogenate was centrifuged at 1000 g for 10 minutes and the supernatant (S1) decanted and recentrifuged at 18,000 g for 20 minutes. The resulting pellet (P2) was resuspended in fresh 0.25M sucrose and served as the tissue source for mitochondrial MAO.
Tubes are preincubated for 15 minutes at 37° C. and the assay is started by adding 40 μl of combined substrate ([^3 H]-5HT and [^14 C]-PEA) at 15 second intervals. The tubes are incubated for 30 minutes at 37° C. and the reaction stopped by the addition of 0.3 ml 2N HCl. Tissue blank values are determined by adding the acid before the radioactive substrate. The oxidative products of the reaction are extracted with ethyl acetate/toluene (1:1). 5 ml of this mixture is added to the tubes. The resultant mixture is vortexed for 15 seconds to extract the deaminated metabolites into the organic phase and the latter is allowed to separate from the aqueous phase. The tubes are placed in acetone/dry ice bath to freeze the aqueous layer. When this layer is frozen, the top organic layer is poured into a scintillation vial. 10 ml of Liquiscint is added and the samples are counted using window settings for ^14 C in one channel and ^3 H in the second channel. IC50 values are determined by log-probit analysis.

The target of a further assay is T2, MAO-B (Rattus norvegicus, UniProt P19643).
T2 construct: the whole brain without cerebellum was dissected rapidly and frozen on dry ice; from tissue; host or cells: whole brain without cerebellum of orally dosed male Wistar rats, homogenate
T2 sequence (P19643 1-520): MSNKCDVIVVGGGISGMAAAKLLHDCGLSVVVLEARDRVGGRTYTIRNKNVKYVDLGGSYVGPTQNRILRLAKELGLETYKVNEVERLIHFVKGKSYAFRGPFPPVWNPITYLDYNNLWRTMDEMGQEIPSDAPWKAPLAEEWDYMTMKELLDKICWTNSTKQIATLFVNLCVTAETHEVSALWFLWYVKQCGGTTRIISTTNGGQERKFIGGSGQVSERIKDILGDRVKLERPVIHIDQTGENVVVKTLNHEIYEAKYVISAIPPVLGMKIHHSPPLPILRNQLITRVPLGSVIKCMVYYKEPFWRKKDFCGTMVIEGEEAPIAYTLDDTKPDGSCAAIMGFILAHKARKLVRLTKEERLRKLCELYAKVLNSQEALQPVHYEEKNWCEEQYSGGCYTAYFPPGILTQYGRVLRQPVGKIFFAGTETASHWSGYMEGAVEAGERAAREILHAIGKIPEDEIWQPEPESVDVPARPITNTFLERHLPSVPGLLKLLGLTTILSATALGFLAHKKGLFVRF
The experiment in a line: Inhibition of Type B monoamine oxidase activity in rat brain synaptosomes. Conditions: substrate [^14 C]-PEA 200 μM; read-out: Inhibitory Concentration - IC50 MAO-B. In kind it is biochemical. From the text:
Male Wistar rats weighing 150-250 grams were sacrificed and the brains rapidly removed.

Regarding `COc1ccc2c(N3CCN(c4ccncc4)CC3)noc2c1` [6-Methoxy-3-[1-(4-pyridyl)piperazinyl)]-1,2-benzisoxazole], the IC50 stood at 10 µM at MAO-A and 45 µM on MAO-B.

For `COc1ccc2c(N(C)CCN3CCOCC3)noc2c1` [6-Methoxy-N-methyl-N-[2-(4-morpholinyl)ethyl]-1,2-benzisoxazol-3-amine], the results for the IC50 on MAO-A and at MAO-B were 13 µM and greater than 1000 µM, respectively.

Consider `COc1cc(Br)c2oc(C3CCNCC3)cc2c1` [Brofaromine, reference compound], for which the IC50 on MAO-A was 0.18 µM.

For `CNCCNc1noc2cc(OC)ccc12` [6-Methoxy-N-[2-(methylamino)ethyl)-1,2-benzisoxazol-3-amine], on MAO-A, the IC50 turned out to be 25 µM.

The record behind these values is patent publication US5580982A, “Substituted 3-(aminoalkylamino)-1,2-benzisoxazoles and related compounds” (priority 1995, dated 1996).
